Reference: US6943191B1, “Disubstituted lavendustin A analogs and pharmaceutical composition comprising the analogs” (The United States of America as represented by the …, priority 1998, dated 2005)
Like-named read-outs stand apart in the source and are kept apart here. Each block holds one compound with its values, some of them ahead of it.

Tests used:
[1] = tested on: K562 cells; assay: K562 cell culture and growth assay, 6 day MTT; format: cell-based, human; settings: K562, 6 days
Experimental: This example describes the procedure used for cell culture and growth assays. Human leukemia, Philadelphia-chromosome-positive CML cell line K562 was obtained from ATCC (Rockville, Md.). Cells were cultured in RPMI medium containing 10% fetal calf serum, 2 mM glutamine, 100 units/ml of penicillin and 100 μg/ml streptomycin Cells (2×10^3 cells/well) were incubated with increasing concentrations of compounds of the present invention dissolved in DMSO in a final volume of 200 μl in 96-well plates. Control cells were incubated with medium containing identical concentrations of the DMSO solvent. Growth of K562 cells was quantitated after 6 days by ability of living cells to reduce the yellow dye 3-(4,5-dimethylthiazolyl)-2,5-diphenyltetrazolium bromide (MTT) to a blue formazan product. Further information concerning this procedure is provided by Mossman T., “Rapid Colorimetric Assay for Cellular Growth and Survival—Application to Proliferation and Cytotoxicity Assays,” J. Immunol. Methods 1983, 65:55-63, which is incorporated herein by reference.

[2] = molecular target: T1, p210^bcr-abl (Homo sapiens, UniProt P00519); assay: Inhibition of in vitro auto-phosphorylation of p210^bcr-abl, immune-complex kinase assay; format: biochemical; settings: Table 4; for IC50: read-out: IC50 (p210^ber-abi in vitro phosphorylation)
T1 construct: immune complexes containing ^32P-labeled p210^bcr-abl were collected on protein Sepharose beads; BCR (N-terminal part of the breakpoint cluster region protein, natural fusion partner); endogenous in cells; host or cells: K562 cells (lysate, immunoprecipitated on Protein A-Sepharose); the other entry of the earlier key: BCR (P11274, Breakpoint cluster region protein)
Experimental: Inhibition of in vitro auto-phosphorylation of p210^bcr-abl in immune-complex kinase assays were conducted as follows. K562 cell line cells were washed twice in […]. The washed cells were lysed in PLC lysis buffer 150 mM HEPES (pH 7.5), 150 mM NaCl, 10% (v/v) glycerol, 1% (v/v) Triton X-100, 1.5 mM MgCl2, 1 mM EGTA. 10 μg/ml leupeptin, 10 μg/ml aprotinin, 1 mM sodium orthovanadate. 10 mM sodium pyrophosphate, 100 mM sodium fluoride and 1 mM phenylmethyl sulfonyl fluoride| Cell lysates were centrifuged at 100,000 g for 15 minutes and the supernatant collected. Protein concentrations of the clarified supernatants were determined by the Bradford Protein Assay, and the same quantity of protein was immunoprecipitated from control (vehicle-treated) and drug-treated cells. Cell lysates were incubated and gently rocked at 4° C. for 4 hours overnight with antibodies. Immune complexes were collected by incubation with Protein A-Sepharose beads (Pharmacia, Piscataway N.J.) and immune complexes (beads) were washed three times with HNTG buffer [20 mM HEPES (pH 7.5), 10% glycerol, 0.1% Triton X-100, 150 mM NaCl and 1 mM sodium orthovanadate] to remove unbound material. Bound proteins were boiled for 5 minutes in 2×SDS sample buffer (63 mM Tris-HCl, ph 6.8; 10% glycerol; 2% SDS; 0.0025% bromophenol blue: and […] 2 mercaptoethanol) prior to SDS-PAGE. Proteins were resolved on 4-20% gradient mini gels from Novex Experimental Technology (San Diego, Calif.).
After SDS-PAGE, proteins were electrophoretically transferred onto Immobilon polyvinylidene difluoride (PVDF) membranes (Millipore, Bedford, Mass.) at 250 mA for 4 hours at 4° C. using 2× Tris glycine transfer buffer (50 mM Tris, glycine), 20% methanol and 0.1% SDS. Residual binding sites on the membrane were blocked by incubation in TTS (20 mM Tris pH 7.4, 0.9% NaCl and 0.05% Tween 20) containing 3% BSA overnight at 4° C. or for 4 hours at room temperature. Blots were incubated for 1-1.5 hours with TTS containing 0.3% BSA with 1 μg/ml of mouse anti-P-Tyr, 2 μg/ml of mouse anti-Grb2 or 1 μg/ml of rabbit anti-She antibody. Blots were washed three times for 6 minutes each with TTS containing 0.3% BSA and probed with a 1:1000 dilution of rabbit anti-mouse antibody or directly with [^125I]Protein A (Amersham, Arlington Heights, Ill.) in blocking solutions. Proteins were visualized by autoradiography (exposed for 1-2 days at −70° C.).
The p210^bcr-abl, protein immunoprecipitates were washed twice with HTNG buffer Immunoprecipitates were washed once with 50 mM Tris (pH 7.0) and distributed to each reaction in 20 μl of 20 mM PIPES [piperazine-N,N′-bis(ethanesulfonic acid)] (pH 7.0)−20 mM MnCl2. Then, 10 μl of compounds made according to the present invention at desired concentrations from working stock solution prepared in 20 mM PIPEs (pH 7.0)−20 mM MnCl2 were added to each reaction tube. Reactions were initiated with the addition of 10 μl of [γ-^33P]ATP (10 μCi per sample, 3000 Ci/mmol; Amersham), incubated for 20 minutes at 30° C., stopped by addition of 10 μl of 5×SDS sample buffer, heated at 100° C. for 5 minutes, and analyzed on 4-20% SDS-PAGE and by autoradiography.
To assess the effect of drugs added in vitro on the state of p210^bcr-abl in the immune complexes, K562 cells were labeled with ^32P, lysed in PLC buffer and immune complexes containing ^32P-labeled p210^bcr-abl were collected on protein Sepharose beads and beads were washed four times with HNTG buffer. Immune complexes were divided into several tubes in 30 μl of PLC buffer in the presence of compounds made as described herein.

[3] = tested on: panel of approximately 60 different human tumor cell lines; assay: National Cancer Institute drug screen, mean-graph parameters; format: cell-based; settings: mean over cell line panel, two days exposure; for GI50: Homo sapiens, 48 h, read-out: Tumor cell Mean log GI50 (converted)
Experimental: Compounds of the present invention also have been subjected to the drug screening procedure employed by the National Cancer Institute for the screening of drugs having possible anticancer utility. The screening procedure uses a diverse, disease-oriented panel consisting of approximately 60 different human tumor cell lines organized into disease-specific subpanels. The compounds of the present invention were tested over a range of concentrations for cytotoxic or growth-inhibitory effects against cell lines comprising the panel. The eight subpanels represented diverse histologies (leukemias, melanomas, and tumors of the lung, colon, kidney, breast, ovary, and brain).
Compounds of the present invention were tested over a period of two days. During this period the cells were continuously exposed to various concentrations of the compounds tested. The tests produced individual dose-responses, one for each cell line (i.e. one for each example), and the data were represented in dose-response curves. The data provided by these dose response curves were summarized using a mean-graph format.
To produce data for the mean-graph format, a compound concentration that produced a target level response was calculated for each cell line. Three different response parameters were evaluated. The first response parameter was the growth inhibition (“GI50”). GI50 is the concentration of compounds made according to the present invention that produced an apparent 50% decrease in the number of tumor cells relative to the appropriate control (not exposed to the compounds of the present invention) at the end of the incubation period.
The second response parameter was the total growth inhibition (“TGI”). TGI is the concentration at which the number of tumor cells remaining at the end of the incubation period substantially equal the number of tumor cells existing at the start of the incubation period.
The third response parameter was the lethal concentration (“LC50”) LC50 is the concentration of compounds made according to the present invention that caused an apparent 50 percent reduction in the number of tumor cells […] at the start of the incubation period.
In a typical GI50 mean graph, the relative position of the vertical reference line along the horizontal concentration axis was obtained by averaging the negative log10GI50 values for all the cell lines tested against the compound. Horizontal bars were then plotted for the individual negative log10GI50 values of each cell line relative to the vertical reference line. The GI50 graph thus provided a characteristic fingerprint for the compound, displaying the individual cell lines that are proportionately more sensitive than average (bars extending to the right of the reference line) or proportionately less sensitive than average (bars extending to the left of the reference line). The length of a bar was proportional to the difference between the log10GI50 value obtained with the particular cell line and the mean (represented by the vertical reference line).
Similar mean graphs were prepared for the TGI and LC50 response parameters.

[4] = tested on: minimum of 12 human cancer cell lines; assay: Hollow fiber assay in mice, point score; format: in vivo; settings: for Hollow Fiber Assay IP score: first number of cell; for Hollow Fiber Assay SC score: second number of cell
Experimental: Compounds satisfying Formulas 1 and 2 also have been tested for in vivo activity in the hollow fiber assay. See Example 12 below for the procedure used for the in vivo tests. Each compound tested was tested against a minimum of 12 human cancer cell lines. Data is reported as % T/C (i.e., the […]) for each of the 2 compound doses against each of the cell lines with separate values calculated for the intraperitoneal and subcutaneous samples, with a target value for % T/C being about 50 or less.
Compounds were selected for further in vivo testing in standard subcutaneous xenograft models on the basis of several hollow fiber assay criteria. These criteria include: (1) a % T/C of 50 or less in 10 of the 48 possible test combinations (12 cell lines×2 sites×2 compound doses); (2) activity at a distance (intrapentoneal drug/subcutaneous culture) in a minimum of 4 of the 24 possible combinations; and/or (3) a net cell kill of 1 or more cell lines in either implant site. To simplify evaluation, a point system has been adopted which allows rapid assessment of a compound's activity. A value of 2 is assigned for each compound dose which results in a 50% or greater reduction in viable cell mass. The intraperitoneal and subcutaneous samples were scored separately so that criteria (1) and (2) could be evaluated. Compounds with a combined IP+SC score≧20, an SC score≧8, or a net cell kill of one or more cell lines were referred for xenograft testing. These criteria have been statistically validated by comparing the activity outcomes of greater than 80 randomly selected compounds in the hollow fiber assay and in the xenograft testing.
This example describes the method used for in vivo testing of mice. Human cancer cells were cultivated in polyvinylidene fluoride (PVDF) hollow fibers. A sample of each cancer cell line was implanted intraperitoneally and subcutaneously in mice. Each mouse received a total of 6 fibers, 3 intraperitoneally and 3 subcutaneously, representing 3 distinct cancer cell lines. Three mice were treated with compounds made according to the present invention at each of two test doses intraperitoneally using a QD×4 treatment schedule. Vehicle controls consisted of 6 mice receiving the compound diluent only The fiber cultures were collected on the day following the last treatment. Anticancer effects were assessed by determining viable cell mass for each of the coil line using a formazan dye (MTT) conversion assay. From this, the % TIC was calculated using the average optical density of the compound-treated samples divided by the average optical density of the vehicle controls. In addition, the net increase in cell mass was determined for each sample as samples of fiber cultures were assessed for viable cell mass on the day of implantation into mice. This allowed cytostatic and cytocidal capacities of these compounds to be assessed.

[5] = Homo sapiens, 144 h, Table 4, read-out: IC50 (6d MTT)
[6] = Homo sapiens, 144 h, Table 9, mean ± S.E., 4 or more experiments, read-out: IC50 (μM) 6dMTT

T1 sequence (P00519 with tags, fused parts or gaps): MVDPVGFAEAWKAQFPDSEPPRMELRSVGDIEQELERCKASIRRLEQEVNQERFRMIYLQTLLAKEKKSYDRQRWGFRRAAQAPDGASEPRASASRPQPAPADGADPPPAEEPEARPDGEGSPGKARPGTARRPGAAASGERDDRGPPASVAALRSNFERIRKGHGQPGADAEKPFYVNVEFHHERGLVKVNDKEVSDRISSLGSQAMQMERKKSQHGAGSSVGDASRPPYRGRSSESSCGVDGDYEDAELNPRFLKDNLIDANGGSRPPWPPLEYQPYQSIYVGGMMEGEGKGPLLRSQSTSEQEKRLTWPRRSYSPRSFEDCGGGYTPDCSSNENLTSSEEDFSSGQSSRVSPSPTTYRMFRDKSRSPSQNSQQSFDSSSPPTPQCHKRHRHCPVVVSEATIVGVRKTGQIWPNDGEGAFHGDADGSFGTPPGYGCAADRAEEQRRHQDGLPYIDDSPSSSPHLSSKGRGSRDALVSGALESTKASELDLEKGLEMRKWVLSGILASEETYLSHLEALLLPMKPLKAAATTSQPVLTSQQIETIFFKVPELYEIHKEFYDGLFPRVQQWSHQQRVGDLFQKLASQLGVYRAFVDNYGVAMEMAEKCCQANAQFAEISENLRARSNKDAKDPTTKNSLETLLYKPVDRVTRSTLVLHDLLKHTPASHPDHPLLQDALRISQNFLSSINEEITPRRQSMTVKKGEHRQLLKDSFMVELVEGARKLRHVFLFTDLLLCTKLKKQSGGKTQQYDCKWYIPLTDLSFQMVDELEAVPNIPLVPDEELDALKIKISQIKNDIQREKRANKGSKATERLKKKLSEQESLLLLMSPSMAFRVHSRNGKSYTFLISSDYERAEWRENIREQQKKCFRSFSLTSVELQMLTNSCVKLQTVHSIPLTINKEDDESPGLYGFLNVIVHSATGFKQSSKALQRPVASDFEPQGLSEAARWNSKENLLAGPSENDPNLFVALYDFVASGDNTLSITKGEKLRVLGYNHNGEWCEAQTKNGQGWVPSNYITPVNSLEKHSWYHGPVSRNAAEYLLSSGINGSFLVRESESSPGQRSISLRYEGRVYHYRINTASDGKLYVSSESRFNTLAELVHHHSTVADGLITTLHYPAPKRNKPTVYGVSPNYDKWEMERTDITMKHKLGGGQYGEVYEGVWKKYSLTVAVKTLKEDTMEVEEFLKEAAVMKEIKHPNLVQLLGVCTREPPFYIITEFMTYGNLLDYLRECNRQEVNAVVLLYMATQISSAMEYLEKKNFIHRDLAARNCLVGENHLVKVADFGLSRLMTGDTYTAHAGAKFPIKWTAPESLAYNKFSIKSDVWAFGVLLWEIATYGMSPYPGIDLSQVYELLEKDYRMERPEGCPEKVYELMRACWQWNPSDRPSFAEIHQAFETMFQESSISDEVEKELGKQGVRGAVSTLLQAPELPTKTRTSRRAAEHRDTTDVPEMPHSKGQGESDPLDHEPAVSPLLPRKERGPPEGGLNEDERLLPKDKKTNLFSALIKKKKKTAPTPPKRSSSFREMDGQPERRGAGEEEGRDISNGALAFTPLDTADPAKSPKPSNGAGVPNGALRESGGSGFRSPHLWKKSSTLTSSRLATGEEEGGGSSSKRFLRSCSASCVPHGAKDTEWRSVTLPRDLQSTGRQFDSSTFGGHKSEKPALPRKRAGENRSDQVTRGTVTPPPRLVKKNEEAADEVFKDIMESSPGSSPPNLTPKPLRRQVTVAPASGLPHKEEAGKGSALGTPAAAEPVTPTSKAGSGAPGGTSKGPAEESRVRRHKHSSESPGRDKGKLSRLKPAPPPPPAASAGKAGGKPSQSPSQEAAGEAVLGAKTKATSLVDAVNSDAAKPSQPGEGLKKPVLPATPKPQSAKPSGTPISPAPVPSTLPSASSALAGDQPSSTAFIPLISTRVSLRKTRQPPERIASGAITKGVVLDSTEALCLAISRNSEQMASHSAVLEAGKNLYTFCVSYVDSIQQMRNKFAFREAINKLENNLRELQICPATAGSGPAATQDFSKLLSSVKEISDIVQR

SMILES: COc1ccc(OC)c(CNc2ccc(C(=O)O)cc2)c1 [COOH / H / CH3]
- IC50 ([1]; Table 8, mean+S.E., 4 or more experiments, read-out: IC50 (μM) 6 dMTT): 100 µM
- Tumor Cell Mean log GI50 ([3]; Table 8): −4.0
- Tumor Cell Mean log TGI ([3]; Table 8): −4.0

SMILES: CC(C)(C)OC(=O)c1ccc(NCc2cc(O)ccc2O)cc1 [Compound 14]
- IC50 [1, 5]: 7 µM
- IC50 [2]: 10 µM

SMILES: COC(=O)c1ccc(NCc2cc(O)c3ccccc3c2O)cc1 [Compound 18]
- IC50 [1, 6]: 6.83 ± 1.68 µM
- GI50 ([3]; Table 9): 8.91 µM
- Tumor Cell Mean log TGI ([3]; Table 9): −4.62
- Hollow Fiber Assay IP score ([4]; Table 9, intraperitoneal fibers): 4
- Hollow Fiber Assay SC score ([4]; Table 9, subcutaneous fibers): 0
- Hollow Fiber Assay Total Ip and SC Score ([4]; Table 9): 0

SMILES: O=C(O)c1ccc(/C=C/c2cc(O)ccc2O)cc1O [COOH / 2,5-dihydroxyphenyl / CH═CH / OH]
- Tumor Cell Mean log GI50 ([3]; Table 10): >−5.03
- Tumor Cell Mean log TGI ([3]; Table 10): >−5.0

SMILES: CC(C)OC(=O)c1cc(NCc2c(O)ccc(O)c2Br)ccc1Cl [Compound 13]
- IC50 [1, 5]: 18 µM
- IC50 [2]: 10 µM

SMILES: COC(=O)c1ccc(NCc2cc(OC)ccc2OC)cc1 [COOCH3 / H / CH3]
- IC50 ([1]; Homo sapiens, 144 h, Table 8, mean+S.E., 4 or more experiments, read-out: IC50 (μM) 6 dMTT): 41.3 µM
- Tumor Cell Mean log GI50 ([3]; Table 8): −4.40
- Tumor Cell Mean log TGI ([3]; Table 8): −4.04

SMILES: COC(=O)c1ccc(CCC2=CC(=O)C=CC2=O)cc1 [COOCH3 / 2,5-quinoyl / CH2—CH2 / H]
- IC50 ([1]; Table 10, mean ± S.E., 4 or more experiments, read-out: IC50 (μM) 6dMTT): 5.65 ± 0.8 µM
- Tumor Cell Mean log GI50 ([3]; Table 10): −5.00
- Tumor Cell Mean log TGI ([3]; Table 10): −4.65
- Hollow Fiber Assay IP score ([4]; Table 10): 6
- Hollow Fiber Assay SC score ([4]; Table 10): 4
- Hollow Fiber Assay Total Ip and SC Score ([4]; Table 10): 10

Now from value to compound, other results behind:

- IC50 [1, 5]: 7.5 µM
- IC50 (p210^ber-abi in vitro phosphorylation) [2]: No Effect
SMILES: COC(=O)c1ccc(/C=C/C2=CC(=O)C=CC2=O)cc1 [Compound 33]

- IC50 [1, 5]: 10 µM
- IC50 (p210^ber-abi in vitro phosphorylation) [2]: No Effect
SMILES: CC(C)OC(=O)c1ccc(CCC2=CC(=O)C(Br)=CC2=O)cc1 [Compound 32]

- IC50 [1, 6]: 9.11 ± 1 µM
SMILES: COC(=O)c1ccc(NCC2=CC(=O)c3ccccc3C2=O)cc1 [Compound 19, 4′-methylbenzoate-1′-N-1,4-methylnaphthoquinone amine]
- GI50 ([3]; Table 9): 13.8 µM
- Tumor Cell Mean log TGI ([3]; Table 9): −4.41

- IC50 [1, 6]: 32 ± 0.5 µM
SMILES: O=C1C=CC(=O)C(CNc2ccc(C(=O)OC34CC5CC(CC(C5)C3)C4)cc2)=C1 [Compound 22, 4′-adamantylbenzoate-1′-N-p-quinone-2-methyl amine]
- GI50 ([3]; Table 9): 4.79 µM
- Tumor Cell Mean log TGI ([3]; Table 9): −4.72

- IC50 [1, 5]: 26 µM
- IC50 [2]: 25 µM
SMILES: CC(C)OC(=O)c1ccc(CCC2=CC(=O)C=CC2=O)cc1 [Compound 30]
